Where two headings read alike, the source gives them in different places.
Columns and labels:
panelists = assay: Intensity of sweet taste, tasted against a 5% aqueous sucrose standard solution; format: in vivo; conditions: for Sweetness Intensity / Degree of sweet taste / intensity of sweet taste: as compared with a 5% aqueous solution of sucrose; for Degree of sweet taste / intensity of sweet taste: salt crystals
Method: Intensity of sweet taste (sweetening potency; degree of sweet taste) of the crystals of each stereoisomer obtained can be determined by comparing with a 5% aqueous solution of sucrose, but a method for the determination of intensity of sweet taste is not limited thereto. “Sweet taste” intensity of each stereoisomer obtained was measured by the following method. A 0.05% aqueous solution of each stereoisomer was prepared and diluted to an appropriate extent to prepare an aqueous solution of a sample of a predetermined concentration. Separately, a 5% aqueous solution of sucrose was prepared and used as a standard solution. The diluted aqueous solution of the sample and the standard aqueous sucrose solution were tasted one after another and the sweetness rate was determined from the sample concentration where the intensities of sweetness were noted to be same. Seven panelists performed the evaluation.

[1] = hydrochlorides, reported by K. Nakamura et al., cited from earlier work
[2] = Comparison of thermostability of the crystals (120° C., open vial, decomposed products by HPLC); format: physicochemical; conditions: area % to residual monatin
Method: Comparison of Thermostability of the Crystals.
Each 50 mg of the crystals and the amorphous solid prepared by the above-mentioned methods were placed in a 4-ml vial and preserved (kept) at the temperature of 120° C. At that time, the vial was made in an open state. Each 2 mg of the sample were taken out after retention time of 3 hours, 7 hours and 24 hours and the rate (ratio) of decomposed products were determined by means of HPLC (high-performance liquid chromatography).

[3] = samples crystallized and purified as a sodium salt
[4] = samples prepared by HPLC, purified by ion-exchange resin and freeze-dried as an ammonium salt

N[C@@H](C[C@@](O)(Cc1c[nH]c2ccccc12)C(=O)O)C(=O)O [(2S, 4S), (2S,4S)-2-amino-4-carboxy-4-hydroxy-5-(3-indolyl)-pentanoic acid]
Intensity of the sweet taste (panelists; Example 1 ammonium salts, amorphous solid, 5% aqueous sucrose standard, seven panelists): about 300 fold
Sweetness Intensity (panelists; [3]): ca. 50
Sweetness Intensity (panelists; [4]): ca. 300
Intensity of sweet taste, comparison in words (panelists; comparison among the four stereoisomers and with reported data): far lower than the data which were reported already
Degree of sweet taste / intensity of sweet taste (panelists): about 50 fold

Cl.N[C@@H](C[C@@](O)(Cc1c[nH]c2ccccc12)C(=O)O)C(=O)O [synthetic (2S,4S) monatin substance]
Sweet taste, in words [1]: sweet potency equivalent to that of the a natural specimen of monatin

N.N[C@H](C[C@](O)(Cc1c[nH]c2ccccc12)C(=O)O)C(=O)O [Ammonium salt crystals]
Rate of Decomposed Product A (%) ([2]; retention time 3 hours): 1.9%
Rate of Decomposed Product B (%) ([2]; retention time 3 hours): 1.2%
Rate of Decomposed Product A (%) ([2]; retention time 7 hours): 3.8%
Rate of Decomposed Product B (%) ([2]; retention time 7 hours): 2.3%
Rate of Decomposed Product A (%) ([2]; retention time 24 hours): 11.8%
Rate of Decomposed Product B (%) ([2]; retention time 24 hours): 7.6%

N[C@H](CC(O)(Cc1c[nH]c2ccccc12)C(=O)O)C(=O)O (stereo partly drawn) [(2R, 4S)]
Sweetness Intensity (panelists; [3]): ca. 1300
Sweetness Intensity (panelists; [4]): ca. 800

Cl.N[C@@H](C[C@](O)(Cc1c[nH]c2ccccc12)C(=O)O)C(=O)O
Sweet taste, in words [1]: almost no sweet taste
Sweet taste, in words ([1]; listed as synthetic (2S,4R) monatin substance): slightly sweet taste

N[C@H](CC(O)(Cc1c[nH]c2ccccc12)C(=O)O)C(=O)O (some centres unmarked) [Free substance crystals]
Rate of Decomposed Product A (%) ([2]; retention time 3 hours): 2.0%
Rate of Decomposed Product B (%) ([2]; retention time 3 hours): 2.1%
Rate of Decomposed Product A (%) ([2]; retention time 7 hours): 3.8%
Rate of Decomposed Product B (%) ([2]; retention time 7 hours): 4.3%
Rate of Decomposed Product A (%) ([2]; retention time 24 hours): 5.3%
Rate of Decomposed Product B (%) ([2]; retention time 24 hours): 11.7%

NC(CC(O)(Cc1c[nH]c2ccccc12)C(=O)O)C(=O)[O-].[Na+] (centres unmarked) [Example 11]
Degree of sweet taste / intensity of sweet taste (panelists): about 1300 fold

Source: patent publication US7795296B2, “Crystals of non-natural-type stereoisomer salt of monatin and use thereof” (Ajinomoto Co., Inc., priority 2001, dated 2010)
